Results reported in PubChem BioAssay (NCI).
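Results reflect a 48-hour exposure of cells in 96-well plates to compound at five concentrations. GI50 marks 50% less growth. The concentration for full growth arrest is given as TGI.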

Assays:
Assay in all cases: growth of human tumour cells (NCI), 48 h
M19-MEL melanoma = tested on: M19-MEL melanoma
IGROV1 ovarian = tested on: IGROV1 ovarian
DMS 273 small cell lung = tested on: DMS 273 small cell lung
HOP-18 NSCLC = tested on: HOP-18 NSCLC
LXFL 529 NSCLC = tested on: LXFL 529 NSCLC
LOX IMVI melanoma = tested on: LOX IMVI melanoma
MDA-MB-231 breast = tested on: MDA-MB-231 breast
HS 578T breast = tested on: HS 578T breast
MCF7 breast = tested on: MCF7 breast
NCI-H226 lung = tested on: NCI-H226 lung
DU-145 prostate = tested on: DU-145 prostate
SK-OV-3 ovarian = tested on: SK-OV-3 ovarian
XF 498 CNS = tested on: XF 498 CNS

| Structure (SMILES) | TGI (M19-MEL melanoma) [µM] | TGI (IGROV1 ovarian) [µM] | TGI (DMS 273 small cell lung) [µM] | TGI (HOP-18 NSCLC) [µM] | TGI (LXFL 529 NSCLC) [µM] | TGI (LOX IMVI melanoma) [µM] | GI50 (MDA-MB-231 breast) [µM] | TGI (MDA-MB-231 breast) [µM] | GI50 (HS 578T breast) [µM] | TGI (HS 578T breast) [µM] | GI50 (MCF7 breast) [µM] | TGI (MCF7 breast) [µM] | GI50 (NCI-H226 lung) [µM] | TGI (NCI-H226 lung) [µM] | GI50 (DU-145 prostate) [µM] | TGI (DU-145 prostate) [µM] | GI50 (SK-OV-3 ovarian) [µM] | TGI (SK-OV-3 ovarian) [µM] | GI50 (LOX IMVI melanoma) [µM] | TGI (XF 498 CNS) [µM] |
| --- | --- | --- | --- | --- | --- | --- | --- | --- | --- | --- | --- | --- | --- | --- | --- | --- | --- | --- | --- | --- |
| O=C1CCC(c2ccccc2)=NN1c1nsc2ccccc12 | > 100 | > 100 | > 100 | > 100 | > 100 | > 100 | – | – | – | – | – | – | – | – | – | – | – | – | – | – |
| COc1cnc2c(c1)C(=O)c1c-2n(CCCN2CCOCC2)c(=O)c2cc(Cl)ccc12 | – | – | – | – | – | 0.532 | > 100 | > 100 | 24.9 | > 100 | 0.0959 | > 100 | 0.396 | > 100 | 0.41 | > 100 | 0.397 | > 100 | 0.152 | – |
| COc1cccc(N2C(Cl)C(=O)C2c2c[nH]c3ccccc23)c1 (stereo not given) | > 100 | > 100 | – | – | > 100 | – | – | – | – | – | – | – | – | – | – | – | – | > 100 | – | > 100 |
